Results as given in PubChem BioAssay AID1919009 (Molecular Pharmacology Branch, DTP, NCI, 2023).

System: K24384-001-R-PDC complex spheroid growth
Test: Anticancer human tumor K24384-001-R-PDC patient-derived pancreatic adenocarcinoma cell line growth inhibition [AhR]
Conditions: for IC50: curve of first compound; for viability, T/C: stronger effect = lower value
Summary of the method: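 Agents were dosed in half-log steps down from roughly clinical Cmax, or from 10 microM where Cmax was unknown, alone and with AhR antagonists. Read-out: percent test/control growth of tumor spheroids containing HUVEC and MSC stromal cells.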

[1] = second compound 0.1 µM, first compound 0.0316 µM
[2] = second compound 0.1 µM, first compound 0.1 µM
[3] = second compound 0.1 µM, first compound 0.316 µM
[4] = second compound 0.1 µM, first compound 1 µM
[5] = second compound 0.1 µM, first compound 3.16 µM
[6] = second compound 0.1 µM, first compound 10 µM
[7] = second compound 0.316 µM, first compound 0.0316 µM
[8] = second compound 0.316 µM, first compound 0.1 µM
[9] = second compound 0.316 µM, first compound 0.316 µM
[10] = second compound 0.316 µM, first compound 1 µM
[11] = second compound 0.316 µM, first compound 3.16 µM
[12] = second compound 0.316 µM, first compound 10 µM
[13] = second compound 1 µM, first compound 0.0316 µM
[14] = second compound 1 µM, first compound 0.1 µM
[15] = second compound 1 µM, first compound 0.316 µM
[16] = second compound 1 µM, first compound 1 µM
[17] = second compound 1 µM, first compound 3.16 µM
[18] = second compound 1 µM, first compound 10 µM
[19] = second compound 3.16 µM, first compound 0.0316 µM
[20] = second compound 3.16 µM, first compound 0.1 µM
[21] = second compound 3.16 µM, first compound 0.316 µM
[22] = second compound 3.16 µM, first compound 1 µM
[23] = second compound 3.16 µM, first compound 3.16 µM
[24] = second compound 3.16 µM, first compound 10 µM
[25] = second compound 10 µM, first compound 0.0316 µM
[26] = second compound 10 µM, first compound 0.1 µM
[27] = second compound 10 µM, first compound 0.316 µM
[28] = second compound 10 µM, first compound 1 µM
[29] = second compound 10 µM, first compound 3.16 µM
[30] = second compound 10 µM, first compound 10 µM
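For viability, T/C in this document: percent of DMSO vehicle-treated spheroid viability set as 100%.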

IC50 (second compound 0.1 µM)	IC50 (second compound 0.316 µM)	IC50 (second compound 1 µM)	IC50 (second compound 3.16 µM)	IC50 (second compound 10 µM)	SMILES	viability, T/C [1]	viability, T/C [2]	viability, T/C [3]	viability, T/C [4]	viability, T/C [5]	viability, T/C [6]	viability, T/C [7]	viability, T/C [8]	viability, T/C [9]	viability, T/C [13]	viability, T/C [14]	viability, T/C [19]	viability, T/C [20]	viability, T/C [25]	viability, T/C [26]	other results
> 10000 nM	> 10000 nM	> 10000 nM	3160 nM	> 10000 nM	COc1cc(Nc2ncc3c(n2)-c2ccc(Cl)cc2C(c2c(F)cccc2OC)=NC3)ccc1C(=O)O + Cc1ccccc1N=Nc1ccc(NC(=O)c2ccnn2C)c(C)c1	87.8%	71.2%	76%	48.9%	49.6%	51.5%	79.8%	68.1%	68.7%	79.5%	69.3%	64.7%	64.5%	90.6%	84.8%	viability, T/C [10]: 60.6%; viability, T/C [11]: 52.6%; viability, T/C [12]: 54.1%; viability, T/C [15]: 60.6%; viability, T/C [16]: 48.7%; viability, T/C [17]: 52.6%; viability, T/C [18]: 60.1%; viability, T/C [21]: 69.2%; viability, T/C [22]: 49.2%; viability, T/C [23]: 54.9%; viability, T/C [24]: 57.3%; viability, T/C [27]: 85.5%; viability, T/C [28]: 74.2%; viability, T/C [29]: 75.4%; viability, T/C [30]: 70.3%
> 100 nM	> 100 nM	> 100 nM	> 100 nM	> 100 nM	Cn1ncnc1C1c2n[nH]c(=O)c3cc(F)cc(c23)NC1c1ccc(F)cc1 (stereo not given) + Cc1ccccc1N=Nc1ccc(NC(=O)c2ccnn2C)c(C)c1	79%	96.7%					67.1%	73.5%		66.3%	66%	65.6%	62.8%	82.3%	66.2%	viability, T/C (second compound 0.1 µM, first compound 0.000316 µM): 100%; viability, T/C (second compound 0.1 µM, first compound 0.001 µM): 110%; viability, T/C (second compound 0.1 µM, first compound 0.00316 µM): 110%; viability, T/C (second compound 0.1 µM, first compound 0.01 µM): 98.2%; viability, T/C (second compound 0.316 µM, first compound 0.000316 µM): 104%; viability, T/C (second compound 0.316 µM, first compound 0.001 µM): 112%; viability, T/C (second compound 0.316 µM, first compound 0.00316 µM): 75.8%; viability, T/C (second compound 0.316 µM, first compound 0.01 µM): 74.3%; viability, T/C (second compound 1 µM, first compound 0.000316 µM): 98.2%; viability, T/C (second compound 1 µM, first compound 0.001 µM): 84.3%; viability, T/C (second compound 1 µM, first compound 0.00316 µM): 73.3%; viability, T/C (second compound 1 µM, first compound 0.01 µM): 72.8%; viability, T/C (second compound 3.16 µM, first compound 0.000316 µM): 86.9%; viability, T/C (second compound 3.16 µM, first compound 0.001 µM): 87.8%; viability, T/C (second compound 3.16 µM, first compound 0.00316 µM): 87.6%; viability, T/C (second compound 3.16 µM, first compound 0.01 µM): 67.4%; viability, T/C (second compound 10 µM, first compound 0.000316 µM): 91.8%; viability, T/C (second compound 10 µM, first compound 0.001 µM): 84%; viability, T/C (second compound 10 µM, first compound 0.00316 µM): 102%; viability, T/C (second compound 10 µM, first compound 0.01 µM): 86%
932 nM	928 nM	732 nM	432 nM	427 nM	NS(=O)(=O)OCC1CC(n2ccc3c(NC4CCc5ccccc54)ncnc32)CC1O (stereo not given) + Cc1ccccc1N=Nc1ccc(NC(=O)c2ccnn2C)c(C)c1	104%	117%	96.4%	47.4%	23.7%	22.1%	104%	115%	98.8%	117%	127%	103%	108%	96.2%	104%	viability, T/C [10]: 46.1%; viability, T/C [11]: 27.3%; viability, T/C [12]: 18.3%; viability, T/C [15]: 83.5%; viability, T/C [16]: 39.5%; viability, T/C [17]: 24.2%; viability, T/C [18]: 22.6%; viability, T/C [21]: 58.3%; viability, T/C [22]: 32.7%; viability, T/C [23]: 24.6%; viability, T/C [24]: 20.9%; viability, T/C [27]: 59%; viability, T/C [28]: 30.1%; viability, T/C [29]: 23.4%; viability, T/C [30]: 20.3%
